Strand notation (5' to 3'): a small letter for the sugar, then the base; units joined by * are phosphorothioate-linked, units joined directly phosphodiester-linked; [ ] holds rarer units or linkages, { } end groups; capitals alone tell only the bases. d = 2'-deoxy (DNA)
Tests used:
Format in all cases: cell-based, human
[1] = test system: HCT116 colon cell carcinoma; experiment: Relative colony forming efficiency after antisense treatment (Table 13); conditions: 0.2 μM antisense oligodeoxyribonucleotide phosphorothioate; HCT116 cells; averages of 2-8 determinations
[2] = test system: MIA PaCa-2 pancreatic cell carcinoma; experiment: as above; conditions: 0.2 μM antisense oligodeoxyribonucleotide phosphorothioate; MIA PaCa-2 cells; averages of 2-8 determinations
A549 lung cell carcinoma = experiment: as above; conditions: 0.2 μM antisense oligodeoxyribonucleotide phosphorothioate; A549 cells; averages of 2-8 determinations
[3] = test system: MDA-MB-231 breast cell adenocarcinoma; experiment: Relative colony forming efficiency after antisense treatment (Table 13, FIG. 11, FIG. 12); conditions: 0.2 μM antisense oligodeoxyribonucleotide phosphorothioate; MDA-MB-231 cells; averages of 2-8 determinations
Protocol: Colony forming efficiency was determined as previously reported [Huang and Wright, 1994]. The cells were cultured for 24 hours at 37° C. in growth medium with 10% fetal bovine serum. The cells were washed in 5 ml phosphate buffered saline, pH 7.2, once prior to lipofectin+/−oligonucleotide treatment.
The oligonucleotides being tested were added to cell cultures in the presence of 2.5 μg of DOTMA/DOPE (Lipofectin; Life Technologies, Inc.) for four hours. The oligonucleotide was tested at 0.2 μM unless otherwise indicated. Controls were the cultures treated with lipofectin but without the oligonucleotide. After 4 hours the medium containing the oligonucleotide was removed and washed with 5 ml of growth medium. The cells were then cultured in growth medium containing 10% fetal bovine serum for seven to ten days. Surviving cells were visualized by methylene blue staining, and colonies were scored. In some experiments cell aliquotes were removed from the culture and viability was determined using the trypan blue exclusion test [Phillips, 1973]. Results were analyzed as percent of surviving cells compared to control cells.
To test the antisense effects of many of these sequences as phosphorthioate deoxyribonucleotides, they were examined in relative colony forming experiments performed with a series of human tumor cell lines. Many of these antisense constructs, as predicted, are potent inhibitors of human tumor cell proliferation. For results obtained with cancer cells derived from the bladder, breast, lung, colon, pancreas, prostate, liver and cervix, see Table 13. In addition, in vivo studies with AS-II-626-20 were undertaken in C3H/HeN mice as reported in Table 14 and show a significant reduction in metastasis in the antisense treated mice.
Colony forming ability of MDA-MB-231 human breast cancer cells treated with 28 different antisense oligonucleotides was estimated as previously described (Choy et al., 1988). Aliquots of cell suspension were seeded into 60 mm Petri dishes and incubated at 37° C. overnight in α-MEM medium supplemented with 10% fetal bovine serum. Cells were washed in 5 ml of phosphate buffered saline, pH 7.2, prior to 0.2 μM antisense/lipofectin treatments for 4 hours. The media containing the antisense oligonucleotides were removed and cells were washed once and cultured in growth medium for 7 to 10 days. Colonies were stained with methylene blue and scored as described (Choy et al., 1988; Huang and Wright 1994). Percent inhibition was calculated by comparison with the number of colonies present in cultures grown in the absence of antisense oligonucleotides. All experiments were performed in quadruplicate. FIG. 11 is a graph of the percentage inhibition of colony formation by treatment with the various antisense oligonucleotides.
Colony forming ability of various human tumor cell lines was estimated by determining relative colony forming efficiencies (Choy et al., 1988). Cells from various cell lines were washed in 5 ml of phosphate buffered saline, pH 7.2. The cells were treated with 0.2 μM AS-I-618-20 antisense oligonucleotide/lipofectin for 4 hours. The medium containing the antisense oligonucleotide was then removed and the cells were gently washed with 5 ml of growth medium. The cells were cultured in growth medium containing 10% fetal bovine serum for seven to ten days. […] The following human tumor cell lines were evaluated: HepG2 (liver), SK-OV-3 (ovary), U87 (brain), A2058 (melanoma), H460 (lung), MDA-MB-231 (breast) and AsPC-1 (pancreas).

[4] = test system: T24 bladder cell carcinoma; experiment: Relative colony forming efficiency after antisense treatment (Table 13); conditions: 0.2 μM antisense oligodeoxyribonucleotide phosphorothioate; T24 cells; averages of 2-8 determinations
[5] = test system: PC-3 prostrate cell adenocarcinoma; experiment: as above; conditions: 0.2 μM antisense oligodeoxyribonucleotide phosphorothioate; PC-3 cells; averages of 2-8 determinations
[6] = test system: HepG2 hepatocellular carcinoma; experiment: Relative colony forming efficiency after antisense treatment (Table 13, FIG. 12); conditions: 0.2 μM antisense oligodeoxyribonucleotide phosphorothioate; HepG2 cells; averages of 2-8 determinations

ATGGAAAAAAAAAATCAGCC (DNA, all phosphorothioate, methylation of C not given here) [AS-II-1390-20]
Reduced relative colony forming efficiency, expressed as % inhibition, HCT116 [1]: 62.18% | Reduced relative colony forming efficiency, expressed as % inhibition, MIA PaCa-2 [2]: 82.77% | Reduced relative colony forming efficiency, expressed as % inhibition, A549 (A549 lung cell carcinoma): 88.31% | Reduced relative colony forming efficiency, expressed as % inhibition, MDA-MB-231 [3]: 66.89% | Reduced relative colony forming efficiency, expressed as % inhibition, T24 [4]: 61.13% | Reduced relative colony forming efficiency, expressed as % inhibition, PC-3 [5]: 76.76% | Reduced relative colony forming efficiency, expressed as % inhibition, HepG2 [6]: 90.21%

GACATCACTCCCATCCTCTG (DNA, all phosphorothioate, methylation of C not given here) [AS-II-1302-20]
Reduced relative colony forming efficiency, expressed as % inhibition, HCT116 [1]: 71.98% | Reduced relative colony forming efficiency, expressed as % inhibition, MIA PaCa-2 [2]: 23.86% | Reduced relative colony forming efficiency, expressed as % inhibition, A549 (A549 lung cell carcinoma): 93.17% | Reduced relative colony forming efficiency, expressed as % inhibition, MDA-MB-231 [3]: 92.2% | Reduced relative colony forming efficiency, expressed as % inhibition, T24 [4]: 70.56% | Reduced relative colony forming efficiency, expressed as % inhibition, PC-3 [5]: 79.01%

GCAAAGGCTACAACACGTTC (antisense; DNA, all phosphorothioate, methylation of C not given here) [AS-II-861-20]
Reduced relative colony forming efficiency, expressed as % inhibition, HCT116 [1]: 74.2% | Reduced relative colony forming efficiency, expressed as % inhibition, MIA PaCa-2 [2]: 97.3% | Reduced relative colony forming efficiency, expressed as % inhibition, A549 (A549 lung cell carcinoma): 95.78% | Reduced relative colony forming efficiency, expressed as % inhibition, MDA-MB-231 [3]: 89.98% | Reduced relative colony forming efficiency, expressed as % inhibition, T24 [4]: 73.5% | Reduced relative colony forming efficiency, expressed as % inhibition, PC-3 [5]: 87.33% | Reduced relative colony forming efficiency, expressed as % inhibition, HepG2 [6]: 96.08%

CGTTGAGGAAAATACAGTGA (antisense; DNA, all phosphorothioate, methylation of C not given here) [AS-II-2182-20]
Reduced relative colony forming efficiency, expressed as % inhibition, HCT116 [1]: 77.66% | Reduced relative colony forming efficiency, expressed as % inhibition, MIA PaCa-2 [2]: 56.43% | Reduced relative colony forming efficiency, expressed as % inhibition, A549 (A549 lung cell carcinoma): 90.97% | Reduced relative colony forming efficiency, expressed as % inhibition, MDA-MB-231 [3]: 84.95% | Reduced relative colony forming efficiency, expressed as % inhibition, T24 [4]: 67.76% | Reduced relative colony forming efficiency, expressed as % inhibition, PC-3 [5]: 85.91% | Reduced relative colony forming efficiency, expressed as % inhibition, HepG2 [6]: 95.48%

GCAAAGAAAGCCAGAACATG (dG*dC*dA*dA*dA*dG*dA*dA*dA*dG*dC*dC*dA*dG*dA*dA*dC*dA*dT*dG; antisense) [AS-II-579-20]
Reduced relative colony forming efficiency, expressed as % inhibition, HCT116 [1]: 69.08% | Reduced relative colony forming efficiency, expressed as % inhibition, MIA PaCa-2 [2]: 97.55% | Reduced relative colony forming efficiency, expressed as % inhibition, A549 (A549 lung cell carcinoma): 95.49% | Reduced relative colony forming efficiency, expressed as % inhibition, MDA-MB-231 [3]: 66.89% | Reduced relative colony forming efficiency, expressed as % inhibition, T24 [4]: 76.68% | Reduced relative colony forming efficiency, expressed as % inhibition, PC-3 [5]: 88.16% | Reduced relative colony forming efficiency, expressed as % inhibition, HepG2 [6]: 94.28%

ACCCTTCCCATTGGCTGCGC (dA*dC*dC*dC*dT*dT*dC*dC*dC*dA*dT*dT*dG*dG*dC*dT*dG*dC*dG*dC; antisense) [AS-II-6-20]
Reduced relative colony forming efficiency, expressed as % inhibition, MIA PaCa-2 [2]: 95.15% | Reduced relative colony forming efficiency, expressed as % inhibition, MDA-MB-231 [3]: 88.4% | Reduced relative colony forming efficiency, expressed as % inhibition, T24 [4]: 73.85% | Reduced relative colony forming efficiency, expressed as % inhibition, PC-3 [5]: 89.21% | Reduced relative colony forming efficiency, expressed as % inhibition, HepG2 [6]: 97.89%

TGCCTCCGACCCTTCCCATT (antisense dT*dG*dC*dC*dT*dC*dC*dG*dA*dC*dC*dC*dT*dT*dC*dC*dC*dA*dT*dT) [AS-II-14-20]
Reduced relative colony forming efficiency, expressed as % inhibition, MIA PaCa-2 [2]: 47.93% | Reduced relative colony forming efficiency, expressed as % inhibition, MDA-MB-231 [3]: 91.24% | Reduced relative colony forming efficiency, expressed as % inhibition, T24 [4]: 77.59% | Reduced relative colony forming efficiency, expressed as % inhibition, PC-3 [5]: 92.76% | Reduced relative colony forming efficiency, expressed as % inhibition, HepG2 [6]: 88.4%

CACACAACCTACTTACACCA (antisense; DNA, all phosphorothioate, methylation of C not given here) [AS-II-2372-20]
Reduced relative colony forming efficiency, expressed as % inhibition, HCT116 [1]: 64.7% | Reduced relative colony forming efficiency, expressed as % inhibition, MIA PaCa-2 [2]: 94.36% | Reduced relative colony forming efficiency, expressed as % inhibition, A549 (A549 lung cell carcinoma): 96.41% | Reduced relative colony forming efficiency, expressed as % inhibition, MDA-MB-231 [3]: 90.09% | Reduced relative colony forming efficiency, expressed as % inhibition, T24 [4]: 61.13% | Reduced relative colony forming efficiency, expressed as % inhibition, PC-3 [5]: 86.06%

GCACATCTTCAGTTCATTTA (DNA, all phosphorothioate, methylation of C not given here) [AS-II-1362-20]
Reduced relative colony forming efficiency, expressed as % inhibition, HCT116 [1]: 78.47% | Reduced relative colony forming efficiency, expressed as % inhibition, MIA PaCa-2 [2]: 44.14% | Reduced relative colony forming efficiency, expressed as % inhibition, A549 (A549 lung cell carcinoma): 83.9% | Reduced relative colony forming efficiency, expressed as % inhibition, MDA-MB-231 [3]: 70.22% | Reduced relative colony forming efficiency, expressed as % inhibition, PC-3 [5]: 77.38% | Reduced relative colony forming efficiency, expressed as % inhibition, HepG2 [6]: 80.41%

TTAGTGGTCAGGAGAATGTA (antisense; DNA, all phosphorothioate, methylation of C not given here) [AS-II-1819-20]
Reduced relative colony forming efficiency, expressed as % inhibition, MIA PaCa-2 [2]: 20.02% | Reduced relative colony forming efficiency, expressed as % inhibition, MDA-MB-231 [3]: 90.68% | Reduced relative colony forming efficiency, expressed as % inhibition, T24 [4]: 53.74% | Reduced relative colony forming efficiency, expressed as % inhibition, PC-3 [5]: 85.46% | Reduced relative colony forming efficiency, expressed as % inhibition, HepG2 [6]: 83.89%

TTCATGGTGTGGCTAGTTGG (DNA, all phosphorothioate, methylation of C not given here) [AS-II-1438-20]
Reduced relative colony forming efficiency, expressed as % inhibition, MIA PaCa-2 [2]: 42.13% | Reduced relative colony forming efficiency, expressed as % inhibition, A549 (A549 lung cell carcinoma): 51.27% | Reduced relative colony forming efficiency, expressed as % inhibition, MDA-MB-231 [3]: 69.06% | Reduced relative colony forming efficiency, expressed as % inhibition, T24 [4]: 43.7% | Reduced relative colony forming efficiency, expressed as % inhibition, PC-3 [5]: 83.96%

CGGGTCCGTGATGGGCGCGA (dC*dG*dG*dG*dT*dC*dC*dG*dT*dG*dA*dT*dG*dG*dG*dC*dG*dC*dG*dA; antisense) [AS-II-217-20]
Reduced relative colony forming efficiency, expressed as % inhibition, HCT116 [1]: 61.85% | Reduced relative colony forming efficiency, expressed as % inhibition, MIA PaCa-2 [2]: 87.38% | Reduced relative colony forming efficiency, expressed as % inhibition, MDA-MB-231 [3]: 52.7% | Reduced relative colony forming efficiency, expressed as % inhibition, T24 [4]: 65.02% | Reduced relative colony forming efficiency, expressed as % inhibition, PC-3 [5]: 87.41% | Reduced relative colony forming efficiency, expressed as % inhibition, HepG2 [6]: 99.55%

AACCGGAAAAGAAAATGCCT (antisense; DNA, all phosphorothioate, methylation of C not given here) [AS-II-890-20]
Reduced relative colony forming efficiency, expressed as % inhibition, MIA PaCa-2 [2]: 66.02% | Reduced relative colony forming efficiency, expressed as % inhibition, A549 (A549 lung cell carcinoma): 81.6% | Reduced relative colony forming efficiency, expressed as % inhibition, MDA-MB-231 [3]: 88.2% | Reduced relative colony forming efficiency, expressed as % inhibition, T24 [4]: 82.07% | Reduced relative colony forming efficiency, expressed as % inhibition, PC-3 [5]: 87.93%

GGGCACATCTTCAGTTCATT (DNA, all phosphorothioate, methylation of C not given here) [AS-II-1364-20]
Reduced relative colony forming efficiency, expressed as % inhibition, HCT116 [1]: 77.29% | Reduced relative colony forming efficiency, expressed as % inhibition, MIA PaCa-2 [2]: 59.34% | Reduced relative colony forming efficiency, expressed as % inhibition, A549 (A549 lung cell carcinoma): 95.59% | Reduced relative colony forming efficiency, expressed as % inhibition, MDA-MB-231 [3]: 93.87% | Reduced relative colony forming efficiency, expressed as % inhibition, T24 [4]: 66.59% | Reduced relative colony forming efficiency, expressed as % inhibition, PC-3 [5]: 79.01%
